Experimental data published in paper PMC6155437 (Molecules : A Journal of Synthetic Chemistry and Natural …, 2017).
“Also recorded” adds a separate entry of the source.

Experiments:
Format in all cases: in vitro ADME
[1] = target: CYP3A4 (Homo sapiens, UniProt P08684); assay: CYP3A4 midazolam 1′-hydroxylase inhibition in human liver microsomes; design: tissue Corning Life Sciences; host or cells: pooled human liver microsomes (150 donors)
Protocol: (§1) After a 3-min pre-incubation at 37 °C, the reactions were initiated by addition of NADPH and incubation proceeded for 15 min at 37 °C in a shaking water bath. […] The incubation mixtures were centrifuged (13,000× g, 4 min, 4 °C). All assays were performed in triplicate and mean values were used in calculations.
(§2) Each reaction was initiated by adding the seven-CYP probe substrate cocktail.
The reactions were initiated by addition of NADPH at 37 °C and stopped after 10 min by placing the incubation tubes on ice and adding 100 μL of ice-cold methanol containing an internal standard (d9-1-hydroxybufuralol). The incubation mixtures were centrifuged (13,000× g, 4 min, 4 °C) and then 50 μL of the supernatant was diluted with 50 μL of water. Aliquots (5 μL) of the diluted supernatants were analyzed by LC-MS/MS.
The metabolites formed from CYP substrates were quantified simultaneously by a LC-MS/MS method described previously. The ESI source settings in positive-ion mode for metabolite ionization were: capillary voltage, 4200 V; vaporizer temperature, 350 °C; capillary temperature, 330 °C; sheath gas pressure, 35 psi; and auxiliary gas pressure, 15 psi. Quantification was performed by selected reaction monitoring (SRM) of the [M + H]^+ ion and the related product ion for each metabolite: acetaminophen, 152.1 > 110.3; N-desethylamodiaquine, 328.1 > 283.0; 7-hydroxycoumarin, 163.0 > 107.2; 4-hydroxybupropion, 256.1 > 238.0; 4′-hydroxydiclofenac, 312.0 > 231.1; 4′-hydroxy-mephenytoin; 235.1 > 150.1; 1′-hydroxybufuralol, 278.1 > 186.1; 1′-hydroxymidazolam, 341.9 > 324.0; ^13C2,^15N-acetaminophen 155.1 > 111.2; and d9-1′-hydroxybufuralol, 287.2 > 187.0. Analytical data were processed using Xcalibur software (version 2.1, Thermo Scientific).
(§3) The apparent kinetic parameters for inhibitory potential (Ki and kinact values) and inhibition mode were estimated from the fitted curves using the Enzyme Kinetics program (ver. 1.1; Systat Software Inc., San Jose, CA, USA).

[2] = target: T1, CYP1A2 (Homo sapiens, UniProt P05177); assay: CYP1A2 phenacetin O-deethylase inhibition in pooled human liver microsomes (substrate cocktail, LC-MS/MS); settings: at 50 µM
T1 construct: pooled human liver microsomes (0.2 mg/mL); tissue Corning Life Sciences; host or cells: pooled human liver microsomes (150 donors)
T1 sequence (P05177 1-516): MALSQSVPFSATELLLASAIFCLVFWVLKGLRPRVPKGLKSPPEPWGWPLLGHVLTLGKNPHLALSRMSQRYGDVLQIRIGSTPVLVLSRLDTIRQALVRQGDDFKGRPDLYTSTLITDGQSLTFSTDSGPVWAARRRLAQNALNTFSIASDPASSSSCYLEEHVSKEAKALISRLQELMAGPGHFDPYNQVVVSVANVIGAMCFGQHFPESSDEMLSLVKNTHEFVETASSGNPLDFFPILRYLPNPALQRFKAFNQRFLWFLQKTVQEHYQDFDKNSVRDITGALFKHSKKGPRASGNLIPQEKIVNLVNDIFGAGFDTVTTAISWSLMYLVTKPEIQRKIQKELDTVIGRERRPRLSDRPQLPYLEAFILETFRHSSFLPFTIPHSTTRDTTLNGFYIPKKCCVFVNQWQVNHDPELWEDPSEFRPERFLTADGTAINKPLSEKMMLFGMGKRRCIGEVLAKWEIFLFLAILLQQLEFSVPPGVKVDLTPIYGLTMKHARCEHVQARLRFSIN
Protocol: as §1, §2
(§4) The metabolites formed from CYP substrates were quantified simultaneously by a LC-MS/MS method described previously. The ESI source settings in positive-ion mode for metabolite ionization were: capillary voltage, 4200 V; vaporizer temperature, 350 °C; capillary temperature, 330 °C; sheath gas pressure, 35 psi; and auxiliary gas pressure, 15 psi. […] Analytical data were processed using Xcalibur software (version 2.1, Thermo Scientific).
as §3

[3] = target: T2, UGT2B7 (Homo sapiens, UniProt P16662); assay: UGT2B7 naloxone 3-β-D-glucuronidation inhibition in human liver microsomes
T2 construct: tissue Corning Life Sciences; host or cells: pooled human liver microsomes (150 donors)
T2 sequence (P16662 24-529): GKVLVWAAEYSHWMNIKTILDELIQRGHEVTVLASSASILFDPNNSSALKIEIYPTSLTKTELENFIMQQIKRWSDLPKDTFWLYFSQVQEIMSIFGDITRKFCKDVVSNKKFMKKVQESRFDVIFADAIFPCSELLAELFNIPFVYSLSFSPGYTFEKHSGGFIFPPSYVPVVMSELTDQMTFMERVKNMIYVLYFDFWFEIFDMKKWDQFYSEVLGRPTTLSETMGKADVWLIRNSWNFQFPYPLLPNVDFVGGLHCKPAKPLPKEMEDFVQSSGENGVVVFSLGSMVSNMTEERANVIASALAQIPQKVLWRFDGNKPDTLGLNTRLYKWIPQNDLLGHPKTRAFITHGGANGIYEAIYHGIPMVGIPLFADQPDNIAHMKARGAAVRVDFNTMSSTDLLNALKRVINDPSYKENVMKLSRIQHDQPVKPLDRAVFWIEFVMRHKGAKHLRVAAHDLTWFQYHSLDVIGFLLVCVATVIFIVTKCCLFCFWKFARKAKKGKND
Protocol: After 3 min of pre-incubation at 37 °C, the reactions were initiated by addition of UDPGA; incubation continued for 60 min at 37 °C in a shaking water bath. The reaction was stopped by placing the tubes on ice and adding 50 µL ice-cold acetonitrile containing internal standards (propofol glucuronide for chenodeoxycholic acid 24-acyl-β-glucuronide and mycophenolic acid glucuronide, and meloxicam for SN-38 glucuronide, trifluoperazine glucuronide, N-acetylserotonin β-D-glucuronide, and naloxone 3-β-D-glucuronide). The incubation mixtures were centrifuged (13,000× g, 4 min, 4 °C). All assays were performed in triplicate and average values were used in calculations.
The reactions were initiated by addition of UDPGA at 37 °C and stopped after 60 min by placing the incubation tubes on ice and adding 100 μL of ice-cold methanol containing propofol glucuronide (internal standard for UGT1A3) or meloxicam (internal standard for UGT2B7). The incubation mixtures were centrifuged (13,000× g, 4 min, 4 °C), and then, 50 μL of the supernatant was diluted with 50 μL of water. Aliquots (5 μL) of the diluted supernatants were analyzed by LC-MS/MS.
The metabolites formed from the six UGT cocktail substrates were measured simultaneously using the LC-MS/MS method. The ESI source settings in both positive- and negative-ion modes for metabolite ionization were: capillary voltage, 4200 V; vaporizer temperature, 350 °C; capillary temperature, 330 °C; sheath gas pressure, 35 psi; and auxiliary gas pressure, 15 psi. […] Data were processed using Xcalibur software.
as §3

[4] = target: T3, CYP2C19 (Homo sapiens, UniProt P33261); assay: CYP2C19 [S]-mephenytoin 4′-hydroxylase inhibition in human liver microsomes; settings: at 50 µM
T3 construct: pooled human liver microsomes (0.2 mg/mL); tissue Corning Life Sciences; host or cells: pooled human liver microsomes (150 donors)
Protocol: as §1, §2, §4, §3

CYP3A4, sequence (P08684 whole entry): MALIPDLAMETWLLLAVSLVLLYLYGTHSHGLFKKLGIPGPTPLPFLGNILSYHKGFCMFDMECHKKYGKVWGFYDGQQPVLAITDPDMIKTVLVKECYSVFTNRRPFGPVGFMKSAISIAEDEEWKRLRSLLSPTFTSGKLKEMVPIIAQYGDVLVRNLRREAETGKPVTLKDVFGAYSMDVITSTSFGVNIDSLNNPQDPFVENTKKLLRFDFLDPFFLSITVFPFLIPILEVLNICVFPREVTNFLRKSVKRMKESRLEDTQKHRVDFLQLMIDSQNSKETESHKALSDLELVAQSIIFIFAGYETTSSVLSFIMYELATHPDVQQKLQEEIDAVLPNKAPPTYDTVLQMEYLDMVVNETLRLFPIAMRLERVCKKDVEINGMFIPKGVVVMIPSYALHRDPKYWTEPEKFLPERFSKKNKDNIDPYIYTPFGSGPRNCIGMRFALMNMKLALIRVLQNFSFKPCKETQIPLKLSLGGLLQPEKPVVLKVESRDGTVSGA
T3 sequence (P33261 whole entry): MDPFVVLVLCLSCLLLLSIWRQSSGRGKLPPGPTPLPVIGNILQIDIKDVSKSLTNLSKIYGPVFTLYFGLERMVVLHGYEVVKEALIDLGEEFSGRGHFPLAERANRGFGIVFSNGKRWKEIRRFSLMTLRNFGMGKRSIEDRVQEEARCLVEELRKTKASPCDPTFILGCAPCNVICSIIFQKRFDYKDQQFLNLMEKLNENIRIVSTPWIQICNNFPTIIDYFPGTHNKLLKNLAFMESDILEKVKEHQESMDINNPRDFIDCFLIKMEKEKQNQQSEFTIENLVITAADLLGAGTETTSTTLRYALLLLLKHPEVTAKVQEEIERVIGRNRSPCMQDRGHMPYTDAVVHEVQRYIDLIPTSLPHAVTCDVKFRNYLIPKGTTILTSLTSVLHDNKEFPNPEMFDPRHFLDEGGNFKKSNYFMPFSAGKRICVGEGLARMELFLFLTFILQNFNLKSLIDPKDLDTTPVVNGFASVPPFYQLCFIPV

## O=C(c1cccc2ccccc12)c1cn(CCCCCF)c2ccccc12 [AM-2201, 1-(5-fluoropentyl-1H-indol-3-yl)-(naphthalene-1-yl)methanone]
[1]
  Ki: 4 µM
[1]; CYP3A4 midazolam 1′-hydroxylation
  Inhibition Mode: competitively inhibited; also recorded: competitive
[1]; IC50 (μM) No Preincubation, Midazolam 1′-hydroxylase, CYP3A4, human liver microsomes, 2.5 μM midazolam
  IC50: 6.9 µM
[1]; IC50 (μM) With Preincubation, Midazolam 1′-hydroxylase, CYP3A4, 30 min preincubation with NADPH
  IC50: 3.8 µM
[1]; IC50, CYP3A4-catalyzed midazolam 1′-hydroxylation, abstract
  IC50: 4 µM
[2]
  inhibition of CYP1A2-mediated phenacetin O-deethylation: negligibly inhibited
[3]
  Ki: 10 µM
[3]; IC50, UGT2B7-catalyzed naloxone 3-glucuronidation, abstract
  IC50: 10 µM
[3]; IC50, UGT2B7 naloxone 3-β-D-glucuronidation, 1 μM naloxone, human liver microsomes
  IC50: 14.5 µM
[3]; UGT2B7 naloxone 3-β-D-glucuronidation
  Inhibition Mode: mixed inhibition
[4]
  inhibition of CYP2C19-mediated [S]-mephenytoin 4′-hydroxylation: negligibly inhibited
